The supplement of paper PMC9005190

What was measured:
HCA3 [1] = molecular target: HCA3 (UniProt P49019); test: pEC50 of agonist-induced pathway activation (ebBRET)
HCA3 [2] = molecular target: HCA3 (UniProt P49019); test: Emax (maximal agonist-induced change in ebBRET relative to vehicle) (% of vehicle response (amplitude of change)); higher = larger response (for Gs, larger decrease in membrane ebBRET, i.e. stronger Gs activation)
AMY3 [3] = test: pEC50 of agonist-induced pathway activation (ebBRET)
AMY3 [4] = test: Emax (maximal agonist-induced change in ebBRET relative to vehicle) (% of vehicle response (amplitude of change)); higher = larger response (for Gs, larger decrease in membrane ebBRET, i.e. stronger Gs activation)
mGluR8 = mGluR8 (UniProt O00222); test: pEC50 of agonist-induced pathway activation (ebBRET)
B2 [5] = molecular target: T1, B2 (UniProt P30411); test: as above
T1 sequence (whole entry): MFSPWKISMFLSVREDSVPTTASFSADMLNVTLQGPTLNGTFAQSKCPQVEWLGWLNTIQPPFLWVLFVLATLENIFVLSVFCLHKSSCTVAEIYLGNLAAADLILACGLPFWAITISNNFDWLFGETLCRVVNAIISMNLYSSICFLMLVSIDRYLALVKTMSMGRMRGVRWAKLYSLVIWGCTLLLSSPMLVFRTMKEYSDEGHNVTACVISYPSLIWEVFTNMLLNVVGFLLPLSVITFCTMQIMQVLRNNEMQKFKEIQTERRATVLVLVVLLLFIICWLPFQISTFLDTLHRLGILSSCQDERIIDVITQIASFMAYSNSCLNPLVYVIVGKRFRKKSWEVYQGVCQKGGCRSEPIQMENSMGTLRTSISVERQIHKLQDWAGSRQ

B1 [6] = molecular target: T2, B1 (UniProt P46663); test: as above
T2 sequence (whole entry): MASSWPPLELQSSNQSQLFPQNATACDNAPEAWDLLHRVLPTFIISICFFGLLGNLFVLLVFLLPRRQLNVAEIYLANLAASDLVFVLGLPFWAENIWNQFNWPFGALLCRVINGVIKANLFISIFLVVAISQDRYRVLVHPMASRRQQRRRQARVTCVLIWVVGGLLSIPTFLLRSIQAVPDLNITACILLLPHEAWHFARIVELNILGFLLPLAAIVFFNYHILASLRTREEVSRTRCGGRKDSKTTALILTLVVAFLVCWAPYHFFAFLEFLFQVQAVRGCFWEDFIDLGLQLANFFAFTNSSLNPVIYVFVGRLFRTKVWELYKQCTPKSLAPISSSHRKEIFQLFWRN

B2 [7] = molecular target: T1, B2; test: Emax (maximal agonist-induced change in ebBRET relative to vehicle) (% of vehicle response (amplitude of change)); higher = larger response (for Gs, larger decrease in membrane ebBRET, i.e. stronger Gs activation)
B1 [8] = molecular target: T2, B1; test: as above
GPR65 [9] = molecular target: GPR65 (UniProt Q8IYL9); test: pEC50 of agonist-induced pathway activation (ebBRET)
GPR68 [10] = molecular target: GPR68 (UniProt Q15743); test: as above
GPR4 [11] = molecular target: GPR4 (UniProt P46093); test: as above
GPR65 [12] = molecular target: GPR65 (UniProt Q8IYL9); test: Emax (maximal agonist-induced change in ebBRET relative to vehicle) (% of vehicle response (amplitude of change)); higher = larger response (for Gs, larger decrease in membrane ebBRET, i.e. stronger Gs activation)
GPR68 [13] = molecular target: GPR68 (UniProt Q15743); test: as above
GPR4 [14] = molecular target: GPR4 (UniProt P46093); test: as above

Sequence of HCA3 (P49019 whole entry): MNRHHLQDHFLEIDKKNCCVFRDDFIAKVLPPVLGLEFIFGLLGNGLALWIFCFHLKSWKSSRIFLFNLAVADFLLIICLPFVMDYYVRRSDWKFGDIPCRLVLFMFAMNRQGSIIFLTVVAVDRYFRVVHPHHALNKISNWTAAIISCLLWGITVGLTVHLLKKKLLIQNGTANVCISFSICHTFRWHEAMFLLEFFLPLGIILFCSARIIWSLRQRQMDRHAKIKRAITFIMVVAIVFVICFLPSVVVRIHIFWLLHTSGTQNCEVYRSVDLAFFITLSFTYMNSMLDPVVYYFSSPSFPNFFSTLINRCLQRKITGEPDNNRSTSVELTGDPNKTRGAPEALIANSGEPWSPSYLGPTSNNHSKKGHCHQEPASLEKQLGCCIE
Sequence of mGluR8 (O00222 whole entry): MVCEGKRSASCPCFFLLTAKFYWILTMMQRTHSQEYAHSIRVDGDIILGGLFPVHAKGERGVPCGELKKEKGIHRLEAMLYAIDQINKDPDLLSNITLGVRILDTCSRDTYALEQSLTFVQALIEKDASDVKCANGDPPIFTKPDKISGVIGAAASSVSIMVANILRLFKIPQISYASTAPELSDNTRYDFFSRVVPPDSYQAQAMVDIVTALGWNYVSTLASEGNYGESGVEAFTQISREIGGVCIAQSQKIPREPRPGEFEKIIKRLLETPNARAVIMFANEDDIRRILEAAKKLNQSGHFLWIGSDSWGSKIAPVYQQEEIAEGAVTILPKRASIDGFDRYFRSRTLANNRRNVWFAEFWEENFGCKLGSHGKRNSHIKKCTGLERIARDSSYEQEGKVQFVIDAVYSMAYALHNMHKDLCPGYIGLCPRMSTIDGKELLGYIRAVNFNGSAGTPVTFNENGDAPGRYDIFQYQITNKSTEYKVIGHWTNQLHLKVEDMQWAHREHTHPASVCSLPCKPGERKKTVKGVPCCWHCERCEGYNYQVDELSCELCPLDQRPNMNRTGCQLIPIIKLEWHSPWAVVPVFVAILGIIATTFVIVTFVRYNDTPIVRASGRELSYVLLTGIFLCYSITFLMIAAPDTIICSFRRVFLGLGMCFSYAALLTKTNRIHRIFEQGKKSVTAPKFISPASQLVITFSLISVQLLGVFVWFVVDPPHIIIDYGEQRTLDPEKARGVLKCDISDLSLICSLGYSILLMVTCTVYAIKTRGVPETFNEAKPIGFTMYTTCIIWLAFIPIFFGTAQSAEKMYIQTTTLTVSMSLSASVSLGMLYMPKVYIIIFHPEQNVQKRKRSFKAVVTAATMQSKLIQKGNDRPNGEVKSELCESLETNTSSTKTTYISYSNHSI
Sequence of GPR65 (Q8IYL9 whole entry): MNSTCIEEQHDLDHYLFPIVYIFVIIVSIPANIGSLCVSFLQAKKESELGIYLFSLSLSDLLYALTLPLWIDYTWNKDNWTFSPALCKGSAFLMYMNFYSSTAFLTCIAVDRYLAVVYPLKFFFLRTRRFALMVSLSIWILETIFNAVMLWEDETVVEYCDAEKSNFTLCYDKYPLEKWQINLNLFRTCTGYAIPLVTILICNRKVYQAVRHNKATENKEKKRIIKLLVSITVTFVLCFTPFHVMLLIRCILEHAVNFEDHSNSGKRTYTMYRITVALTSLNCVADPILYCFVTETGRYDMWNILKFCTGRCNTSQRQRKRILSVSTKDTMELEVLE
Sequence of GPR4 (P46093 whole entry, looked up): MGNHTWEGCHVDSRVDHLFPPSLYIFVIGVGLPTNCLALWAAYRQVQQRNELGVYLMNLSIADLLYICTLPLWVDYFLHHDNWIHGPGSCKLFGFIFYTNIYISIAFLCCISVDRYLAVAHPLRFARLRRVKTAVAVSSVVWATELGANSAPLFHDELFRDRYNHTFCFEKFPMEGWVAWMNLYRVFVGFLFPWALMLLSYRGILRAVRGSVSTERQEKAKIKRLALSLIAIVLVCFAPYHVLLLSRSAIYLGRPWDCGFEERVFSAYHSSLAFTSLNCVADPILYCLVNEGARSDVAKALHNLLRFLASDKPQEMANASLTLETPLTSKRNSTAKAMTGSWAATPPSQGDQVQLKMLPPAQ
Sequence of GPR68 (Q15743 whole entry): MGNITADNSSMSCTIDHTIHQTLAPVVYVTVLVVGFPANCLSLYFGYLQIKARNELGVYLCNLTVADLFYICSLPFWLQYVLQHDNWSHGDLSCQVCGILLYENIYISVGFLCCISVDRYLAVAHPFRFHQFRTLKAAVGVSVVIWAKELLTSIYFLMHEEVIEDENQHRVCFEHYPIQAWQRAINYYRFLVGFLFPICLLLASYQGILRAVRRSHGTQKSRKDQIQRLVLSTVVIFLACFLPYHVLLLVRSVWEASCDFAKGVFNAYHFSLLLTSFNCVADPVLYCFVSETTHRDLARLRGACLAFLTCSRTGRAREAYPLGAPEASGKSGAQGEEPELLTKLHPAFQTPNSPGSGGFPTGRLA

CCCCCC(O)CC(=O)O (stereo not drawn) [3-HOA]
Details	Emax, HCA3 [2]	pEC50, HCA3 [1]
pathway (G protein / arrestin sensor): G13	97.9	4.08
pathway (G protein / arrestin sensor): Gi1	415	5.63
pathway (G protein / arrestin sensor): Gi2	190	5.71
pathway (G protein / arrestin sensor): GoA	187	5.5
pathway (G protein / arrestin sensor): GoB	317	5.45
pathway (G protein / arrestin sensor): Gz	178	5.25
pathway (G protein / arrestin sensor): βarr1/GRK2	605	3.49
pathway (G protein / arrestin sensor): βarr2	115	3.52
pathway (G protein / arrestin sensor): βarr2/GRK2	487	3.47

CC[C@H](C)[C@H](NC(=O)[C@H](C)NC(=O)CNC(=O)[C@H](Cc1ccccc1)NC(=O)[C@H](CC(N)=O)NC(=O)[C@H](CC(N)=O)NC(=O)[C@H](CO)NC(=O)[C@H](CO)NC(=O)[C@H](Cc1cnc[nH]1)NC(=O)[C@@H](NC(=O)[C@H](CC(C)C)NC(=O)[C@H](Cc1ccccc1)NC(=O)[C@H](CC(N)=O)NC(=O)[C@H](C)NC(=O)[C@H](CC(C)C)NC(=O)[C@H](CCCNC(=N)N)NC(=O)[C@H](CCC(N)=O)NC(=O)[C@@H](NC(=O)[C@H](C)NC(=O)[C@@H]1CSSC[C@H](NC(=O)[C@@H](N)CCCCN)C(=O)N[C@@H](CC(N)=O)C(=O)N[C@@H]([C@@H](C)O)C(=O)N[C@@H](C)C(=O)N[C@@H]([C@@H](C)O)C(=O)N1)[C@@H](C)O)C(C)C)C(=O)N[C@@H](CC(C)C)C(=O)N[C@@H](CO)C(=O)N[C@@H](CO)C(=O)N[C@H](C(=O)N[C@@H](CC(N)=O)C(=O)N[C@H](C(=O)NCC(=O)N[C@@H](CO)C(=O)N[C@@H](CC(N)=O)C(=O)N[C@H](C(=O)N[C@@H](Cc1ccc(O)cc1)C(N)=O)[C@@H](C)O)C(C)C)[C@@H](C)O [Amylin]
Details	Emax, pathway (G protein / arrestin sensor): G12	Emax, pathway (G protein / arrestin sensor): G13	Emax, pathway (G protein / arrestin sensor): G15	Emax, pathway (G protein / arrestin sensor): Gs	pEC50, pathway (G protein / arrestin sensor): G12	pEC50, pathway (G protein / arrestin sensor): G13	pEC50, pathway (G protein / arrestin sensor): G15	pEC50, pathway (G protein / arrestin sensor): Gs
AMY3 [3]	–	–	–	–	8.6	8.49	7.22	7.79
AMY3 [4]	62.3	271	122	21.4	–	–	–	–

NC(CCC(=O)O)C(=O)O (stereo not drawn) [Glutamate]
mGluR8
Details	pEC50
pathway (G protein / arrestin sensor): Gi1	5.6
pathway (G protein / arrestin sensor): Gi2	5.52
pathway (G protein / arrestin sensor): GoA	6.07
pathway (G protein / arrestin sensor): GoB	5.99
pathway (G protein / arrestin sensor): Gz	5.49

NCCCC[C@H](N)C(=O)N[C@@H](CCCN=C(N)N)C(=O)N1CCC[C@H]1C(=O)N1CCC[C@H]1C(=O)NCC(=O)N[C@@H](Cc1ccccc1)C(=O)N[C@@H](CO)C(=O)N1CCC[C@H]1C(=O)N[C@@H](Cc1ccccc1)C(=O)N[C@@H](CCCN=C(N)N)C(=O)O [Kallidin]
Details	Emax, B1 [8]	Emax, B2 [7]	pEC50, B1 [6]	pEC50, B2 [5]
pathway (G protein / arrestin sensor): G11	201	802	6.8	9.54
pathway (G protein / arrestin sensor): G12	–	83.2	–	10.2
pathway (G protein / arrestin sensor): G13	–	484	–	9.16
pathway (G protein / arrestin sensor): G14	162	871	6.88	9.54
pathway (G protein / arrestin sensor): G15	78.9	1050	7.54	8.75
pathway (G protein / arrestin sensor): Gi1	94.8	478	6.64	8.14
pathway (G protein / arrestin sensor): Gi2	65.7	257	6.75	7.87
pathway (G protein / arrestin sensor): GoA	81.3	149	6.7	7.83
pathway (G protein / arrestin sensor): GoB	161	360	6.78	8.14
pathway (G protein / arrestin sensor): Gq	171	576	6.91	9.71
pathway (G protein / arrestin sensor): Gz	32.3	204	6.93	8.65
pathway (G protein / arrestin sensor): βarr1/GRK2	–	1740	–	8.62
pathway (G protein / arrestin sensor): βarr2	–	889	–	8.54
pathway (G protein / arrestin sensor): βarr2/GRK2	–	1180	–	8.52

Cl [pH (proton)]
Details	Emax, GPR4 [14]	Emax, GPR65 [12]	Emax, GPR68 [13]	pEC50, GPR4 [11]	pEC50, GPR65 [9]	pEC50, GPR68 [10]
pathway (G protein / arrestin sensor): G11	164	–	849	6.64	–	7.35
pathway (G protein / arrestin sensor): G12	–	–	63.4	–	–	7.71
pathway (G protein / arrestin sensor): G13	–	117	65.6	–	7.9	8.24
pathway (G protein / arrestin sensor): G14	61.3	–	871	6.26	–	7.2
pathway (G protein / arrestin sensor): G15	111	–	446	6.59	–	6.49
pathway (G protein / arrestin sensor): Gi1	–	–	582	–	–	6.56
pathway (G protein / arrestin sensor): Gi2	–	–	454	–	–	6.63
pathway (G protein / arrestin sensor): GoA	–	–	296	–	–	7.17
pathway (G protein / arrestin sensor): GoB	–	86.8	428	–	6.3	7.41
pathway (G protein / arrestin sensor): Gq	152	–	749	6.73	–	7.4
pathway (G protein / arrestin sensor): Gs	44.2	32.3	44.9	7.91	7	6.51
pathway (G protein / arrestin sensor): βarr1/GRK2	41.4	57.6	76.2	–	5.98	6.25
pathway (G protein / arrestin sensor): βarr2	173	68.8	103	6.99	6.31	6
pathway (G protein / arrestin sensor): βarr2/GRK2	–	–	147	–	–	6.07
